This note sets out measurements from patent publication US20240174679A1, “HETEROAROYL AMIDES AS LRRK2 INHIBITORS, PHARMACEUTICAL COMPOSITIONS, AND USES THEREOF” (MERCK SHARP & DOHME LLC, priority 2021, published 2024).

Chain of GST tagged truncated human mutant G2019S LRRK2 (Q5S007 970-2527 G2019S): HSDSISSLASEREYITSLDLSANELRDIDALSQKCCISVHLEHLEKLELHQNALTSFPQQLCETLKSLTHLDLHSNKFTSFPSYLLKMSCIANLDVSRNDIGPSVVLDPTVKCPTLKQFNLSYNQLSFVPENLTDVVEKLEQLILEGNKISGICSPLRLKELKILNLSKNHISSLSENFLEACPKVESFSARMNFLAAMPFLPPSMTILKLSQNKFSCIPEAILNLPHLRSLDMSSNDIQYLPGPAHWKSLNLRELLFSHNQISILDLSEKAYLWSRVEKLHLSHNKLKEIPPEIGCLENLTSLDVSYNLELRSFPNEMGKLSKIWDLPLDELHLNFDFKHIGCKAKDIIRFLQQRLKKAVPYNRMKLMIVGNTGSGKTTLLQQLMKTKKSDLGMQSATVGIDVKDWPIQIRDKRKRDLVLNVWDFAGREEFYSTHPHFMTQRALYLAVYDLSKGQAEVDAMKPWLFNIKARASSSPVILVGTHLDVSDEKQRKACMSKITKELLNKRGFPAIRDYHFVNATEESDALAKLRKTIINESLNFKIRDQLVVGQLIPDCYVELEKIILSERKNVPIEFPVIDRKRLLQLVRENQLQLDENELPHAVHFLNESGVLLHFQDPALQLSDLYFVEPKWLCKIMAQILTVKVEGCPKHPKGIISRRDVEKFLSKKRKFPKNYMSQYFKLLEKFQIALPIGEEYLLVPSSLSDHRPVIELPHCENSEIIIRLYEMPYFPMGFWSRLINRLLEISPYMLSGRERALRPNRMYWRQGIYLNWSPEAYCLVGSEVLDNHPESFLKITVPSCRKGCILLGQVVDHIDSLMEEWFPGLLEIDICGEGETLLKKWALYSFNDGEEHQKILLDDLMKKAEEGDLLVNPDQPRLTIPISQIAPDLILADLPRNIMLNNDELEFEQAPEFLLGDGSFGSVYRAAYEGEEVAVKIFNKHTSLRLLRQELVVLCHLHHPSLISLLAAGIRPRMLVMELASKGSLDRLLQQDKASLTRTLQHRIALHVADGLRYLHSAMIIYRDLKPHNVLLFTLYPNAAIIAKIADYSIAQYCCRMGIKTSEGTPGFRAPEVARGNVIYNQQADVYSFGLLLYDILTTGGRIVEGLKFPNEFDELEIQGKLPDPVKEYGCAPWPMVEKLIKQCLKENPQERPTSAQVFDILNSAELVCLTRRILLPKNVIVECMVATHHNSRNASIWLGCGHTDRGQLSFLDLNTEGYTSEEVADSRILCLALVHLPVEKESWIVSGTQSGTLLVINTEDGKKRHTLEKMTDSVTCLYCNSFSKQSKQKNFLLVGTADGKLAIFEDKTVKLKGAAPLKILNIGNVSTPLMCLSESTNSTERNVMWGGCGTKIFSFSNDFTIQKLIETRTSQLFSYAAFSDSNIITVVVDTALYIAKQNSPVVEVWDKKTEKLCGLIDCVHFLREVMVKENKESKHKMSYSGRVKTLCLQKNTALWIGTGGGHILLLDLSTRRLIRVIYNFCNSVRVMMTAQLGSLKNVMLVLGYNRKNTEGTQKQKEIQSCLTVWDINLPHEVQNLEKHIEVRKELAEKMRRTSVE

This experiment addresses GST tagged truncated human mutant G2019S LRRK2 (Homo sapiens (Human), UniProt Q5S007, G2019S). As to the kind of experiment: LRRK2 Km ATP LanthaScreen Assay. Format: biochemical. The settings on record: 134 μM ATP (Km ATP), LRRKtide substrate, negative log of mean IC50 (molar). The gist of the method: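 Truncated GST-tagged G2019S LRRK2 (1.25 nM enzyme solution) was preincubated with compound for 15 min at rt, then reacted for 90 min with fluorescein-LRRKtide and 134 μM ATP (Km) in Tris pH 8.5/MgCl2 buffer. After an EDTA stop, TR-FRET used a Tb anti-pERM antibody (520/495 nm ratio). IC50 came from a 4-parameter fit and is reported as pIC50, mean of several runs.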
`CCn1cc(-c2nc(C(=O)Nc3cn(CC(F)(F)F)nc3OC)cs2)cn1` [Example 12-4, 2-(1-ethyl-1H-pyrazol-4-yl)-N-[3-methoxy-1-(2,2,2-trifluoroethyl)-1H-pyrazol-4-yl]-1,3-thiazole-4-carboxamide]: the “LRRK2 pIC50” value came to 6.57.

Take `Cc1nn(C2CCC2)cc1NC(=O)c1csc(-c2cnn(C)c2)n1` [Example 12-5, N-(1-cyclobutyl-3-methyl-1H-pyrazol-4-yl)-2-(1-methyl-1H-pyrazol-4-yl)-1,3-thiazole-4-carboxamide]: the “LRRK2 pIC50” value is reported as 7.30.

Regarding `COc1nn(CC(F)(F)F)cc1NC(=O)c1csc(-c2cnn(C)c2)n1` [Example 12-6, N-[3-methoxy-1-(2,2,2-trifluoroethyl)-1H-pyrazol-4-yl]-2-(1-methyl-1H-pyrazol-4-yl)-1,3-thiazole-4-carboxamide], the “LRRK2 pIC50” value came out at 7.06.

Consider `COc1nn(CC(F)(F)F)cc1NC(=O)c1csc(-c2cnn(S(C)(=O)=O)c2)n1` [Example 13-1, N-(3-Methoxy-1-(2,2,2-trifluoroethyl)-1H-pyrazol-4-yl)-2-(1-(methylsulfonyl)-1H-pyrazol-4-yl)thiazole-4-carboxamide], for which the “LRRK2 pIC50” value is recorded as 5.97.
